According to publication PMC5304334, “Antifouling potential of Nature-inspired sulfated compounds” (Scientific Reports, 2017):
Entries after “also recorded” stand apart in the source; their conditions may differ. Where two headings read alike, the source gives them in different places.

What was measured:
[1] = tested on: Mytilus galloprovincialis plantigrades; experiment: Anti-settlement bioassay with mussel plantigrades (effectiveness and mortality); format: in vivo; conditions: for Anti-settlement activity in screening (result in words): 250 and 50 μM, p < 0.05 Dunnett; for EC50: read-out: EC50, minimum concentration that inhibited 50% of larval settlement
Protocol: (§1) M. galloprovincialis juvenile (0.5 cm shell length approximately) aggregates were collected from mussel beds from the intertidal rocky shore, during low neap tides at Memória beach, Matosinhos, Portugal (41°13′59″N; 8°43′28″W), and immediately transported to the laboratory. M. galloprovincialis plantigrade post-larvae (0.5–2 mm) were screened among the small mussel aggregates in a binocular magnifier (Olympus SZX2-ILLT), gently washed with filtered seawater to remove organic debris and sand particles and isolated in a petri dish with filtered seawater immediately before the bioassays.
(§2) For the screening bioassay, competent M. galloprovincialis plantigrades (showing exploring behavior, ie, moving their foot searching for the appropriate substrate to settle) were selected and exposed to the series of sulfated compounds 1–13 at two concentrations (250 and 50 μM) in 24-well microplates for 15 h, at 18 ± 1 °C, in the darkness. Bioassays time frame was selected based on preliminary bioassays to ensure that the response measured is reflecting the compounds effect. Test solutions were prepared in filtered seawater (previously treated by UV light, and carbon filters and mechanically filtered with […] filter before use) and obtained by dilution of the compounds stock solutions (50 mM) in ultra-pure water. Four well replicates were used per condition with five plantigrades per well and 2.5 mL of test solution. A negative control, with ultra-pure water was included in all bioassays, as well as a positive control with 5 μM CuSO4 (a potent AF agent). At the end of the exposure period, the anti-settlement activity was determined by the presence/absence of byssal threads produced by each individual efficiently attached for all the conditions tested.
(§3) Data from the anti-settlement and antibacterial screenings were analyzed using a one-way analysis of variance (ANOVA) followed by a Dunnett test against the control (p < 0.05). Semi-maximum response concentration that inhibited 50% larval settlement (EC50), semi-maximum response concentration that inhibited 20% bacterial growth (EC20) and the median lethal dose (LC50) for each bioactive compound were assessed using Probit regression analysis. Pearson Goodness-of-fit (Chi-Square) significance was considered at p < 0.05 for all analyses, and 95% lower and upper confidence limits [95% LCL; UCL] were presented. Therapeutic ratio (LC50/EC50) was used to evaluate the effectiveness vs toxicity of compounds[31][53][54]. The software IBM SPSS Statistics 21 was used for statistical analysis.

[2] = as above; format: in vivo, Mytilus galloprovincialis; conditions: Mytilus galloprovincialis, in vivo, other: immersion in test solution in filtered seawater; mortality of plantigrades, 15 h, up to 500 μM; read-out: LC50, the median lethal dose
Protocol: as §1, §2, §3

[3] = Seawater stability under AF assay conditions (HPLC-DAD); format: physicochemical; conditions: 250 μM in filtered seawater, 15 h, 18 °C
Protocol: High performance liquid chromatography with Diode-Array Detection (HPLC-DAD) analyses were carried out on a System SMI Pump Series II (Gloucester, UK) equipped with a Rheodyne 7125 injector fitted with a 20 μL loop, a TSP-UV6000LP detector, and a Chromquest for Windows NT integrator and using a C-18 Nucleosil column (5 μm, 250 × 4.6 mm I.D.), from Macherey-Nagel (Düren, Germany); acetonitrile was of HPLC grade from Merck. HPLC ultrapure water was generated by a Milli-Q system (Millipore, Bedford, MA, USA). The mobile phase used was water with tetrabutylammonium bromide (TBAB, 25 mM) and acetonitrile (38:62) at a constant flow rate of 1.0 mL.min^−1. The mobile phase was filtered ([…]) and degassed for 15 min in an ultrasonic bath before use.
The seawater stability of the three most promising compounds 2, 6, and 12 in the time period (15 h) and temperature (18 °C) of the AF assay was evaluated by HPLC-DAD. Compounds were analyzed at 250 μM (final concentration) in filtered seawater ([…]). Incubations were performed in glass HPLC vials and three independent samples plus respective blank (filtered seawater) and controls (time zero - freshly prepared solutions of compounds) were analyzed.

[4] = target: T1, Electrophorus electric acetylcholinesterase Type V-S (Electrophorus electricus, UniProt O42275); experiment: In vitro acetylcholinesterase activity (Ellman); format: biochemical; conditions: 50 μM compound
T1 construct: purchased SIGMA C2888
T1 sequence (O42275 24-633): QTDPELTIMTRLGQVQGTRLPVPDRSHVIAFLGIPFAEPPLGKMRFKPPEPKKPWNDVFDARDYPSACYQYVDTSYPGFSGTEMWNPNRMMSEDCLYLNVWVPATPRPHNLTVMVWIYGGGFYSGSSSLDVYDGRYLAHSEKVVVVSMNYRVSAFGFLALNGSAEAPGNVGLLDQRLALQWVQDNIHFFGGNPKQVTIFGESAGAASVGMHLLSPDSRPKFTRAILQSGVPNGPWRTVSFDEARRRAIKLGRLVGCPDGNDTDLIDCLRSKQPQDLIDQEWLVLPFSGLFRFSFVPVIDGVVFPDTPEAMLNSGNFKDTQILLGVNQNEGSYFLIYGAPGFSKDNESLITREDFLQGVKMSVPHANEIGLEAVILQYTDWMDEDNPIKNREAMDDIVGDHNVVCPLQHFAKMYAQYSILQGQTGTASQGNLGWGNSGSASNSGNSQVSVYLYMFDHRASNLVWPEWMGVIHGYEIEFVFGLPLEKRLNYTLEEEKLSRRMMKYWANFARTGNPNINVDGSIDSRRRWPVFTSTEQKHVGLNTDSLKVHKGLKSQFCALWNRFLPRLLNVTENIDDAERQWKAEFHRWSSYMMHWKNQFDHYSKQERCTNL
Protocol: The potential of compounds 2, 6 and 12 to inhibit acetylcholinesterases activity was evaluated using Electrophorus electric acetylcholinesterase Type V-S (SIGMA C2888, E.C. 3.1.1.7), according to Ellman et al.[47] with some modifications. Briefly, reaction solution containing phosphate buffer 1 M pH 7.2, dithiobisnitrobenzoate (DTNB) 10 mM (acid dithiobisnitrobenzoate and sodium hydrogen carbonate in phosphate buffer) and […] 0.075 M was added to pure acetylcholinesterase enzyme (0.25 U/mL) and each test sulfated compound (final concentration of 50 μM) in quadruplicate. The optical density was measured at 412 nm in a microplate reader during 5 min at 25 °C. A negative control (B) with ultra-pure water and a positive control (C+) with 20 mM eserine also included.

[5] = tested on: Agaricus bisporus tyrosinase; experiment: In vitro tyrosinase inhibition assay; format: biochemical; conditions: 50 μM compound
Protocol: Tyrosinase inhibition assays were conducted using Agaricus bisporus tyrosinase (EC 1.14.18.1) according to Adhikari et al.[50] with slight modifications. The enzymatic reaction follows the catalytic conversion of L-Dopa to dopaquinone and the formation of dopachrome by measuring the absorvance at 475 nm. Briefly, tyrosinase (25 U/mL) is added to 50 mM fosfate buffer pH 6.5 and the sulfated compound at 50 μM. The enzymatic activity was triggered by the addition of L-dopa (25 mM). Kojic acid was included as positive control and ultra-pure water as negative control.

Artemia salina nauplii = Artemia salina nauplii lethality (ecotoxicity) test; format: in vivo
Protocol: Selected sulfated compounds with AF potential 2, 6, and 12 were tested for general toxicity to nontarget species using the brine shrimp (Artemia salina) nauplii lethality test[51]. Briefly, A. salina eggs were allowed to hatch in nutrient–enriched seawater as nauplii for approximately 48 h at 25 °C. Toxicity tests were performed in the darkness in 96-wells microplates with eight replicates per condition and 15–20 nauplii per well. Serial diluted test solutions of the most promising sulfated AF compounds (25, 50, and 250 μM) were prepared in filtered seawater. K2Cr2O7 (13.6 μM) was included as positive control and ultra-pure water as negative control. Percentage of mortality was determined at 48 h of exposure.

[6] = Luminescent Vibrio fischeri ecotoxicity assay (ISO11348); format: cell-based; conditions: Vibrio fischeri; read-out: LC50 Vibrio fischeri
Protocol: (§4) After 5, 15 and 30 min of exposure, the light emitted as a by-product of Vibrio fischeri cellular respiration was measured at 490 nm. Any inhibition of cellular activity results in a decreased rate of respiration and a corresponding decrease in the rate of luminescence. The decrease of bacterial luminescence measured after 5, 15 or 30 min of exposition was used as test endpoint. Luminescence was measured using a LUMIStox photometer from DR LANGE, after a contact time of 15 min and 30 min at 15 ± 1 °C, taking into account a correction factor, fk, which is a measure of intensity change of control samples during the exposure time.
(§5) The pH of all samples was within the interval 6.0–8.5.

[7] = tested on: Vibrio fischeri (NRRL-B-11177); experiment: as above; format: cell-based; conditions: for EC50: Aliivibrio fischeri
Protocol: as §4, §5

[8] = Water solubility (statement in discussion); format: physicochemical
[9] = V. fischeri luminescence, 30 min contact

C[C@@H]1O[C@@H](OC[C@H]2O[C@@H](Oc3c(-c4ccc(OCCOS(=O)(=O)O)c(OCCOS(=O)(=O)O)c4)oc4cc(OCCOS(=O)(=O)O)cc(O)c4c3=O)[C@H](OS(=O)(=O)O)[C@@H](OS(=O)(=O)O)[C@@H]2OS(=O)(=O)O)[C@H](OS(=O)(=O)O)[C@H](OS(=O)(=O)O)[C@H]1OS(=O)(=O)O [Compound 3, 3″,4″-bis(2-sulfateethoxy)-7-(2-sulfateethoxy)-rutin 2″,2″′,3′,3″′,4′,4″′,7-sulfate]
Anti-settlement activity in screening (result in words) ([1]; 15 h, versus negative control): did not show notable activity

O=c1c2ccc(O[C@@H]3O[C@H](COS(=O)(=O)O)[C@@H](OS(=O)(=O)O)[C@H](OS(=O)(=O)O)[C@H]3OS(=O)(=O)O)cc2oc2cc(O[C@@H]3O[C@H](COS(=O)(=O)O)[C@@H](OS(=O)(=O)O)[C@H](OS(=O)(=O)O)[C@H]3OS(=O)(=O)O)ccc12 [Compound 6]
LC50 at 15 h [2]: > 500 µM
Anti-settlement activity in screening (result in words) ([1]; 15 h, versus negative control): significant anti-settlement responses at 50 μM; also recorded: highly active
EC50 ([1]; Mytilus galloprovincialis, 15 h, plantigrades, 15 h, 18 °C, 1.56–500 μM): 23.2 µM
EC50 ([1]; Mytilus galloprovincialis, 15 h, plantigrades, 15 h, 18 °C): 31.7 µg/mL
Concentration range with significant anti-settlement activity ([1]; concentration-response 1.56–500 μM, versus negative control): 25 to 500 µM
Concentration detected relative to the initial one (seawater stability) [3]: at least 95%
Acetylcholinesterase activity inhibition [4]: not inhibited
Tyrosinase activity inhibition [5]: not inhibited
Mortality of Artemia salina (Artemia salina nauplii; 250 μM): < 10%
Mortality of A. salina nauplii (Artemia salina nauplii; 25, 50, and 250 μM, 48 h): less than 10%
Toxicity to A. salina (Artemia salina nauplii; 25, 50, and 250 μM, 48 h, versus negative control): no toxicity
CC50 [6]: > 1000 µg/mL
Inhibition of light radiation emitted by V. fischeri ([7]; 15 min or 30 min contact, up to 1000 mg/L): no inhibition of light radiation emitted was found; also recorded: lack of light radiation inhibition
EC50 ([7]; NRRLB11177, 0.25 h, V. fischeri luminescence, 15 min contact, read-out: EC50 15min): > 1000 µg/mL
EC50 ([7]; NRRLB11177, 0.5 h, V. fischeri luminescence, 30 min contact, read-out: EC50 30min): > 1000 µg/mL
Water solubility [8]: highly water soluble

O=c1c2ccc(OCc3cn([C@@H]4O[C@H](COS(=O)(=O)O)[C@H](OS(=O)(=O)O)[C@H](OS(=O)(=O)O)[C@H]4OS(=O)(=O)O)nn3)cc2oc2cc(OCc3cn([C@@H]4O[C@H](COS(=O)(=O)O)[C@H](OS(=O)(=O)O)[C@H](OS(=O)(=O)O)[C@H]4OS(=O)(=O)O)nn3)ccc12 [Compound 7, 3,6-bis(1-(1-(β-D-galatopyranosyl)-1H-1,2,3-triazole-4-yl)methoxy)xanthone persulfate]
Anti-settlement activity in screening (result in words) ([1]; 15 h, versus negative control): not active

O=C(/C=C/c1ccc(OS(=O)(=O)O)c(OS(=O)(=O)O)c1)O[C@@H]1C[C@](OS(=O)(=O)O)(C(=O)O)C[C@@H](OS(=O)(=O)O)[C@H]1OS(=O)(=O)O [Compound 13, chlorogenic acid persulfate]
Anti-settlement activity in screening (result in words) ([1]; 15 h, versus negative control): much less potent than compound 12

C[C@@H]1O[C@@H](OC[C@H]2O[C@@H](Oc3c(-c4ccc(O)c(O)c4)oc4cc(O)cc(O)c4c3=O)[C@H](O)[C@@H](O)[C@@H]2O)[C@H](O)[C@H](O)[C@H]1O [Compound 14, rutin, reference compound]
Anti-settlement activity in screening (result in words) ([1]; 15 h, versus negative control): did not show significant anti-settlement activity; also recorded: not active

O=C(O)c1cc(O)c(O)c(O)c1 [Compound 15, gallic acid, reference compound]
Anti-settlement activity in screening (result in words) ([1]; 15 h, versus negative control): did not show significant anti-settlement activity; also recorded: not active

N#Cc1c(-c2ccc(Cl)cc2)[nH]c(C(F)(F)F)c1Br [ECONEA®]
Mortality/toxicity to target species plantigrades ([1]; all tested concentrations up to 500 μM): showed some toxicity at the higher concentrations tested
LC50 ([1]; mortality of plantigrades, 15 h, up to 500 μM, read-out: LC50, the median lethal dose): 108 µM
EC50, minimum concentration that inhibited 50% of larval settlement ([1]; plantigrades, 15 h, 18 °C): 1.40 µg/mL
EC50 ([1]; plantigrades, 15 h, 18 °C, 1.56–500 μM): 4.01 µM

[K+].[K+].[O]=[Cr](=[O])([O-])[O][Cr](=[O])(=[O])[O-] [K2Cr2O7, Potassium dichromate, reference compound]
EC50 30min [7, 9]: 5.67 µg/mL
EC80 30min [7, 9]: 16.73 µg/mL
